ChEMBL document CHEMBL4270485, “Determination of Gymnemic Acid I as a Protein Biosynthesis Inhibitor Using Chemical Proteomics” (J Nat Prod, 2017)
Calls of active or inactive are those of the source. The rule behind the calls is not given here.

Key:
[1] = target: T1, 80S Ribosome (Homo sapiens) (UniProt P08865+P42677+P62753+P15880+P23396+P61247+P62701+P22090+P46782+P62081+P62241+P46781+P46783+P62280+P25398+P62277+P62263+P62841+P62244+P62249+P08708+P62269+P39019+P60866+P63220+P62266+P62847+P62851+P62854+P62979+P62857+P62273+P62861+P39023+P36578+P46777+Q02878+P18124+P62424+P62917+P32969+P27635+P62906+P62913+P30050+P26373+P40429+P50914+P61313+P18621+Q07020+Q02543+P84098+P46778+P35268+P62829+P62750+P83731+P61254+P61353+P46776+P46779+P47914+P62888+P62899+P62910+P49207+P42766+P18077+Q9Y3U8+P83881+P61927+P61513+P63173+P62891+P62945+P05388+P05386); assay: Binding affinity to ribosomal protein S3 in human Hela cells lysates assessed as protein enrichment by Western blotting analysis; format: cell-free
[2] = target: T1, 80S Ribosome (Homo sapiens); assay: Binding affinity to ribosomal protein S10 in human Hela cells lysates assessed as protein enrichment by Western blotting analysis; format: cell-free
Oryctolagus cuniculus = organism: Oryctolagus cuniculus; assay: Inhibition of protein synthesis in rabbit reticulocytes pre-incubated for 30 mins before labeled-lysine-t-RNA and amino acid mixture addition and measured after 1 hr by luciferase reporter gene assay; format: functional, cell-based
HeLa = assay: Inhibition of protein synthesis in human HeLa cells at 50 to 500 uM pre-incubated for 1 hr before L-[35S]-cysteine and L-[35S]-methionine addition and measured after 1 hr by Comassie staining based autoradiography; format: functional, cell-based
[3] = target: T1, 80S Ribosome (Homo sapiens); assay: Binding affinity to 40S ribosomal protein S10 in human Hela cells lysates assessed as protein enrichment by measuring normalized heavy/light ratio at by nano-LC-ESIMS/MS analysis; format: cell-free
[4] = target: T1, 80S Ribosome (Homo sapiens); assay: Binding affinity to 40S ribosomal protein S3a in human Hela cells lysates assessed as protein enrichment by measuring normalized heavy/light ratio at by nano-LC-ESIMS/MS analysis; format: cell-free
[5] = target: T1, 80S Ribosome (Homo sapiens); assay: Binding affinity to 40S ribosomal protein S5 in human Hela cells lysates assessed as protein enrichment by measuring normalized heavy/light ratio at by nano-LC-ESIMS/MS analysis; format: cell-free
[6] = target: T1, 80S Ribosome (Homo sapiens); assay: Binding affinity to 60S acidic ribosomal protein P0 in human Hela cells lysates assessed as protein enrichment by measuring normalized heavy/light ratio at by nano-LC-ESIMS/MS analysis; format: cell-free
[7] = target: Large ribosomal subunit protein P2 (Homo sapiens) (UniProt P05387); assay: Binding affinity to 60S acidic ribosomal protein P2 in human Hela cells lysates assessed as protein enrichment by measuring normalized heavy/light ratio at by nano-LC-ESIMS/MS analysis; format: cell-free
[8] = target: T1, 80S Ribosome (Homo sapiens); assay: Binding affinity to 60S ribosomal protein L13 in human Hela cells lysates assessed as protein enrichment by measuring normalized heavy/light ratio at by nano-LC-ESIMS/MS analysis; format: cell-free
[9] = target: T1, 80S Ribosome (Homo sapiens); assay: Binding affinity to 60S ribosomal protein L23 in human Hela cells lysates assessed as protein enrichment by measuring normalized heavy/light ratio at by nano-LC-ESIMS/MS analysis; format: cell-free
[10] = target: T1, 80S Ribosome (Homo sapiens); assay: Binding affinity to 60S ribosomal protein L23a in human Hela cells lysates assessed as protein enrichment by measuring normalized heavy/light ratio at by nano-LC-ESIMS/MS analysis; format: cell-free
[11] = target: T1, 80S Ribosome (Homo sapiens); assay: Binding affinity to 60S ribosomal protein L35 in human Hela cells lysates assessed as protein enrichment by measuring normalized heavy/light ratio at by nano-LC-ESIMS/MS analysis; format: cell-free
[12] = target: T1, 80S Ribosome (Homo sapiens); assay: Binding affinity to 60S ribosomal protein L9 in human Hela cells lysates assessed as protein enrichment by measuring normalized heavy/light ratio at by nano-LC-ESIMS/MS analysis; format: cell-free
[13] = target: Elongation factor 1-beta (Homo sapiens) (UniProt P24534); assay: Binding affinity to elongation factor 1-beta in human Hela cells lysates assessed as protein enrichment by measuring normalized heavy/light ratio at by nano-LC-ESIMS/MS analysis; format: cell-free
[14] = target: Elongation factor 1-gamma (Homo sapiens) (UniProt P26641); assay: Binding affinity to elongation factor 1-gamma in human Hela cells lysates assessed as protein enrichment by measuring normalized heavy/light ratio at by nano-LC-ESIMS/MS analysis; format: cell-free
[15] = target: Eukaryotic initiation factor 4A-II (Homo sapiens) (UniProt Q14240); assay: Binding affinity to eukaryotic initiation factor 4A-II in human Hela cells lysates assessed as protein enrichment by measuring normalized heavy/light ratio at by nano-LC-ESIMS/MS analysis; format: cell-free
[16] = target: GTP-binding nuclear protein Ran (Homo sapiens) (UniProt P62826); assay: Binding affinity to GTP-binding nuclear protein ran in human Hela cells lysates assessed as protein enrichment by measuring normalized heavy/light ratio at by nano-LC-ESIMS/MS analysis; format: cell-free
[17] = target: Heat shock cognate 71 kDa protein (Homo sapiens) (UniProt P11142); assay: Binding affinity to heat shock cognate 71 kDa protein in human Hela cells lysates assessed as protein enrichment by measuring normalized heavy/light ratio at by nano-LC-ESIMS/MS analysis; format: cell-free
[18] = target: L-lactate dehydrogenase A chain (Homo sapiens) (UniProt P00338); assay: Binding affinity to L-lactate dehydrogenase A chain in human Hela cells lysates assessed as protein enrichment by measuring normalized heavy/light ratio at by nano-LC-ESIMS/MS analysis; format: cell-free
[19] = target: Peroxiredoxin-1 (Homo sapiens) (UniProt Q06830); assay: Binding affinity to peroxiredoxin-1 in human Hela cells lysates assessed as protein enrichment by measuring normalized heavy/light ratio at by nano-LC-ESIMS/MS analysis; format: cell-free
[20] = target: Solute carrier family 25 member 3 (Homo sapiens) (UniProt Q00325); assay: Binding affinity to phosphate carrier protein in human Hela cells lysates assessed as protein enrichment by measuring normalized heavy/light ratio at by nano-LC-ESIMS/MS analysis; format: cell-free
[21] = target: Poly(rC)-binding protein 2 (Homo sapiens) (UniProt Q15366); assay: Binding affinity to poly(rC)-binding protein 2 in human Hela cells lysates assessed as protein enrichment by measuring normalized heavy/light ratio at by nano-LC-ESIMS/MS analysis; format: cell-free
[22] = target: Pyruvate kinase PKM (Homo sapiens) (UniProt P14618); assay: Binding affinity to pyruvate kinase isozymes M1/M2 in human Hela cells lysates assessed as protein enrichment by measuring normalized heavy/light ratio at by nano-LC-ESIMS/MS analysis; format: cell-free
[23] = target: Stress-70 protein, mitochondrial (Homo sapiens) (UniProt P38646); assay: Binding affinity to stress-70 protein in human Hela cells lysates assessed as protein enrichment by measuring normalized heavy/light ratio at by nano-LC-ESIMS/MS analysis; format: cell-free
[24] = target: Tubulin beta-4B chain (Homo sapiens) (UniProt P68371); assay: Binding affinity to tubulin beta-4B chain in human Hela cells lysates assessed as protein enrichment by measuring normalized heavy/light ratio at by nano-LC-ESIMS/MS analysis
Tubulin beta-4B chain (Homo sapiens), sequence (P68371 whole entry, looked up): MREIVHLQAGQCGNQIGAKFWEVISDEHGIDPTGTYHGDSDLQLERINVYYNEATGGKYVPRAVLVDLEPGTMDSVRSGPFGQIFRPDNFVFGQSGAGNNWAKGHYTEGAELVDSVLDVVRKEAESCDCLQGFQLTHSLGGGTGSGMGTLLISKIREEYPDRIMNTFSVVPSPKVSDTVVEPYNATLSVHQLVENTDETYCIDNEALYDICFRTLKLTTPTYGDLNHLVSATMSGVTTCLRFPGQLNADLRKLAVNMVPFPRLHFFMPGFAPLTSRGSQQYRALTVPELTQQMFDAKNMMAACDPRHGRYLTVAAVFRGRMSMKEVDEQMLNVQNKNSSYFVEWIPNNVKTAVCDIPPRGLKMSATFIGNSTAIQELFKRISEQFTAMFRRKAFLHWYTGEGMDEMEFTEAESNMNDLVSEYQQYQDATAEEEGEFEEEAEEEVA

Elongation factor 1-beta (Homo sapiens), sequence (P24534 whole entry): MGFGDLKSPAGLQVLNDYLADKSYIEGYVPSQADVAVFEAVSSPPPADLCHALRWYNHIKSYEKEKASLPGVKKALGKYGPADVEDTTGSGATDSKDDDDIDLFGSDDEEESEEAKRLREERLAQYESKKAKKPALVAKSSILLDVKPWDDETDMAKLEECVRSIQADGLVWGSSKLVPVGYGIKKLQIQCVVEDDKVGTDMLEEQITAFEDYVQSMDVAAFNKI
Pyruvate kinase PKM (Homo sapiens), sequence (P14618 2-531 limits assumed): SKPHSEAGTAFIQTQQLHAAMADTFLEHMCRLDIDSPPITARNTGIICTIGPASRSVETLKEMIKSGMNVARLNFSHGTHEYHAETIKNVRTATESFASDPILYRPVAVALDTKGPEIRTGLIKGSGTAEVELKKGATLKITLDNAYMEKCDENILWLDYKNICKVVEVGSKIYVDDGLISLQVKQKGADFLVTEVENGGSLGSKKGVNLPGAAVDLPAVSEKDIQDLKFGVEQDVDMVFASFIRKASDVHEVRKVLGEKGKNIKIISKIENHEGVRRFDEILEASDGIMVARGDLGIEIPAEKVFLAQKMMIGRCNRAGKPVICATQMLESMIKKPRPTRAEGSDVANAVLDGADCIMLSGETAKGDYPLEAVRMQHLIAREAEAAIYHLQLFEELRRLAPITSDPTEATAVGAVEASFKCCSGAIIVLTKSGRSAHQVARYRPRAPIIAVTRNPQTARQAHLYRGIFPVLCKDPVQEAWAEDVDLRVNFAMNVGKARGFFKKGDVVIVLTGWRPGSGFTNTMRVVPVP
Poly(rC)-binding protein 2 (Homo sapiens), sequence (Q15366 whole entry): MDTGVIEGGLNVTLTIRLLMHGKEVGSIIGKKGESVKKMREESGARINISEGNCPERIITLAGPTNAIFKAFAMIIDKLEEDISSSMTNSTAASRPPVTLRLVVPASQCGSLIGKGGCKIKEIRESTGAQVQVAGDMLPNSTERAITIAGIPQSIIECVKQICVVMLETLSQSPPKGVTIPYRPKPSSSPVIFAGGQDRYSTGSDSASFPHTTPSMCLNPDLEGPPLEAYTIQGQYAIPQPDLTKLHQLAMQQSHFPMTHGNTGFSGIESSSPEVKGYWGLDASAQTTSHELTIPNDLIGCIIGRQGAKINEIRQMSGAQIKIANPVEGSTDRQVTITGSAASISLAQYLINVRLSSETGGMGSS
Stress-70 protein, mitochondrial (Homo sapiens), sequence (P38646 whole entry): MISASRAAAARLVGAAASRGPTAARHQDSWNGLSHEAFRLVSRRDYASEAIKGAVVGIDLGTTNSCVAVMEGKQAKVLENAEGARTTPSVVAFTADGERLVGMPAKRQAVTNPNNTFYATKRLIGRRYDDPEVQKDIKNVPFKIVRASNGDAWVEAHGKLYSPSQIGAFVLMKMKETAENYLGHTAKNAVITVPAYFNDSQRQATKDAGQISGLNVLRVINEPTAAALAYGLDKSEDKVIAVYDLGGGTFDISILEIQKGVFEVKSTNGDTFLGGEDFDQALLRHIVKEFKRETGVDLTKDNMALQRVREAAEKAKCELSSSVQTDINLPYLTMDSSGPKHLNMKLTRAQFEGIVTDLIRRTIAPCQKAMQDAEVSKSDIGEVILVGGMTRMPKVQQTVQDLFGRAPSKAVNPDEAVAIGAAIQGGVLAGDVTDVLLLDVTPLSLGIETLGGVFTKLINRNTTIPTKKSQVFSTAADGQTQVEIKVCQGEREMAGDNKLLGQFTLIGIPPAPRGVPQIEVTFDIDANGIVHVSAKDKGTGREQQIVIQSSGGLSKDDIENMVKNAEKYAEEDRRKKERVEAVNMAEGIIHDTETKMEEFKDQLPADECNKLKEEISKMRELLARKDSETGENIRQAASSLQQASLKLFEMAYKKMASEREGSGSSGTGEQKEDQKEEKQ
Eukaryotic initiation factor 4A-II (Homo sapiens), sequence (Q14240 whole entry): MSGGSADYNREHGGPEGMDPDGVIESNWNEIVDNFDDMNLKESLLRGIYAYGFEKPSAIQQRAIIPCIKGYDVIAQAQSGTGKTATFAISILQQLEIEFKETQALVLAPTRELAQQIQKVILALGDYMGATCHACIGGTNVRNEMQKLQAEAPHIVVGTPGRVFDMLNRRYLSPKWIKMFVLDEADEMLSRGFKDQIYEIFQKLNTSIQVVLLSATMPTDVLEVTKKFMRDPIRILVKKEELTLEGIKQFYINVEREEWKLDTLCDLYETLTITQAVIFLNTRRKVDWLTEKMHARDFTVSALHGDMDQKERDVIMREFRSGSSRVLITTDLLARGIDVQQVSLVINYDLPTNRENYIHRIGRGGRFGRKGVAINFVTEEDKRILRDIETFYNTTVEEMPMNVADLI
Peroxiredoxin-1 (Homo sapiens), sequence (Q06830 whole entry): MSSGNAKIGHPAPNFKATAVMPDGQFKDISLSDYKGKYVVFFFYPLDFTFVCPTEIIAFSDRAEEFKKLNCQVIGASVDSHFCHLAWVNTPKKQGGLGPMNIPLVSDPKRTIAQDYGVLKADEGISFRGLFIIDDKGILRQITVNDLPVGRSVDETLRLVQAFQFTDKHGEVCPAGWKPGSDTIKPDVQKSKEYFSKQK
Elongation factor 1-gamma (Homo sapiens), sequence (P26641 whole entry): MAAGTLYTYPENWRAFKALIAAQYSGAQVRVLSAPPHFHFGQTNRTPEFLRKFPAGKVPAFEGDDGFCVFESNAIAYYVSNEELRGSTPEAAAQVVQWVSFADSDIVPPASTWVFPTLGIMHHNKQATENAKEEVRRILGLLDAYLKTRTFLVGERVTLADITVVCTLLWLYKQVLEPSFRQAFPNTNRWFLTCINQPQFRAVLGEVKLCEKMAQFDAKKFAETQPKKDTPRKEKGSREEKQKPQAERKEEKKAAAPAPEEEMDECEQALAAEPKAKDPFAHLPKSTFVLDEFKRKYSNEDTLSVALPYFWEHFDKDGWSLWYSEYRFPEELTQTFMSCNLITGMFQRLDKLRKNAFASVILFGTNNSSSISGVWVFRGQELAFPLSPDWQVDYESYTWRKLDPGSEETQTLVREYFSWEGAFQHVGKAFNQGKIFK
Heat shock cognate 71 kDa protein (Homo sapiens), sequence (P11142 2-646 limits assumed): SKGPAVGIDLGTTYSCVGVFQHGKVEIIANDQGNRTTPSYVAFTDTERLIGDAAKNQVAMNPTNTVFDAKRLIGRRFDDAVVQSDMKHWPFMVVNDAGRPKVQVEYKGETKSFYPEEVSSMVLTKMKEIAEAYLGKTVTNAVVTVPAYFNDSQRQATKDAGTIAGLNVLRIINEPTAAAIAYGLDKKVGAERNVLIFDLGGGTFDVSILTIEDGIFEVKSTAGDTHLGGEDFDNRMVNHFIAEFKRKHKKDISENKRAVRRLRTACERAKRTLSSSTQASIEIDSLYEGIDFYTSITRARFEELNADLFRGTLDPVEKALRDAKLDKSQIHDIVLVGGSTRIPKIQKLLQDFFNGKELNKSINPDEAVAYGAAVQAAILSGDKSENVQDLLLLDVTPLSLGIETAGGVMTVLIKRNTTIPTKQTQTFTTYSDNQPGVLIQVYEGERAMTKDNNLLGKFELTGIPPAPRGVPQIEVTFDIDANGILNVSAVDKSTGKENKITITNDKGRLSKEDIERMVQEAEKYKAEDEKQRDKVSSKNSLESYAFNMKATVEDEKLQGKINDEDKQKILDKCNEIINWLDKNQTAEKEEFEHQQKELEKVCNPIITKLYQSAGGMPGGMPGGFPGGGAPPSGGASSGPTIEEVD
Solute carrier family 25 member 3 (Homo sapiens), sequence (Q00325 whole entry): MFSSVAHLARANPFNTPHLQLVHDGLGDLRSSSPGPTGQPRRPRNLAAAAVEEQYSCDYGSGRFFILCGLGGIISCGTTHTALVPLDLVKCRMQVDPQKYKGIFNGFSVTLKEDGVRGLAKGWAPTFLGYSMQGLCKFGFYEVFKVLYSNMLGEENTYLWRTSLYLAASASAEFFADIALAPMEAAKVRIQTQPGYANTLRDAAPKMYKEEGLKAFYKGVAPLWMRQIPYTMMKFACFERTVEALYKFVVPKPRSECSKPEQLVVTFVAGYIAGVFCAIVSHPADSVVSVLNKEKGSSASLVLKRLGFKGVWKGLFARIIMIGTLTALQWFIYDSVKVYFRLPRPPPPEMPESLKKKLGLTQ
Large ribosomal subunit protein P2 (Homo sapiens), sequence (P05387 whole entry): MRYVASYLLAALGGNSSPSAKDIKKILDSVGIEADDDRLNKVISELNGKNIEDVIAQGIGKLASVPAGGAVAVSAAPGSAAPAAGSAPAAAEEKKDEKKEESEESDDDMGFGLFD

C/C=C(\C)C(=O)O[C@H]1[C@H](O)[C@]2(COC(C)=O)[C@@H](O)C[C@]3(C)C(=CC[C@@H]4[C@@]5(C)CC[C@H](O[C@@H]6O[C@H](C(=O)O)[C@@H](O)[C@H](O)[C@H]6O)[C@@](C)(CO)[C@@H]5CC[C@]43C)[C@@H]2CC1(C)C
Activity [1]: Active | Activity [2]: Active | inhibition (Oryctolagus cuniculus): Dose-dependent effect | inhibition (HeLa): Dose-dependent effect | Ratio [3]: 0.39 | Ratio [4]: 0.238 | Ratio [5]: 0.255 | Ratio [6]: 0.245 | Ratio [7]: 0.329 | Ratio [8]: 0.332 | Ratio [9]: 0.527 | Ratio [10]: 0.313 | Ratio [11]: 0.062 | Ratio [12]: 0.453 | Ratio [13]: 0.525 | Ratio [14]: 0.536 | Ratio [15]: 0.404 | Ratio [16]: 1.53 | Ratio [17]: 0.615 | Ratio [18]: 0.48 | Ratio [19]: 1.06 | Ratio [20]: 0.57 | Ratio [21]: 0.633 | Ratio [22]: 0.899 | Ratio [23]: 0.751 | Ratio [24]: 0.423
